Reference: US20050009132A1, “Culture medium for detecting and/or discriminating enterococcus and method therefor” (priority 2001, published 2005)

Test system: Gram-positive bacteria
Assay: Addition of Crystal Violet to culture medium, growth inhibition of Gram-positive bacteria
Assay type: cell-based
Details: concentration as low as

CN(C)c1ccc(C(=C2C=CC(=[N+](C)C)C=C2)c2ccc(N(C)C)cc2)cc1 [Crystal Violet]
Crystal Violet concentration at which inhibition of the growth of a large quantity of Gram-positive bacteria is observed: 0.1 mg/L
